Measured values from ChEMBL document CHEMBL4130548, “Exploration of 1,2,3-triazole-pyrimidine hybrids as potent reversal agents against ABCB1-mediated multidrug resistance” (Eur J Med Chem, 2018).

Tests used:
Type in all cases: cell-based
[1] = target: T1, ATP-dependent translocase ABCB1 (Homo sapiens, UniProt P08183); assay: Inhibition of ABCB1 in human SW620/AD300 cells assessed as potentiation of paclitaxel-induced cytotoxicity by measuring fold reduction in paclitaxel IC50 at 2 uM preincubated for 4 hrs followed by paclitaxel addition measured after 72 hrs by MTT assay
T1 sequence (P08183 whole entry): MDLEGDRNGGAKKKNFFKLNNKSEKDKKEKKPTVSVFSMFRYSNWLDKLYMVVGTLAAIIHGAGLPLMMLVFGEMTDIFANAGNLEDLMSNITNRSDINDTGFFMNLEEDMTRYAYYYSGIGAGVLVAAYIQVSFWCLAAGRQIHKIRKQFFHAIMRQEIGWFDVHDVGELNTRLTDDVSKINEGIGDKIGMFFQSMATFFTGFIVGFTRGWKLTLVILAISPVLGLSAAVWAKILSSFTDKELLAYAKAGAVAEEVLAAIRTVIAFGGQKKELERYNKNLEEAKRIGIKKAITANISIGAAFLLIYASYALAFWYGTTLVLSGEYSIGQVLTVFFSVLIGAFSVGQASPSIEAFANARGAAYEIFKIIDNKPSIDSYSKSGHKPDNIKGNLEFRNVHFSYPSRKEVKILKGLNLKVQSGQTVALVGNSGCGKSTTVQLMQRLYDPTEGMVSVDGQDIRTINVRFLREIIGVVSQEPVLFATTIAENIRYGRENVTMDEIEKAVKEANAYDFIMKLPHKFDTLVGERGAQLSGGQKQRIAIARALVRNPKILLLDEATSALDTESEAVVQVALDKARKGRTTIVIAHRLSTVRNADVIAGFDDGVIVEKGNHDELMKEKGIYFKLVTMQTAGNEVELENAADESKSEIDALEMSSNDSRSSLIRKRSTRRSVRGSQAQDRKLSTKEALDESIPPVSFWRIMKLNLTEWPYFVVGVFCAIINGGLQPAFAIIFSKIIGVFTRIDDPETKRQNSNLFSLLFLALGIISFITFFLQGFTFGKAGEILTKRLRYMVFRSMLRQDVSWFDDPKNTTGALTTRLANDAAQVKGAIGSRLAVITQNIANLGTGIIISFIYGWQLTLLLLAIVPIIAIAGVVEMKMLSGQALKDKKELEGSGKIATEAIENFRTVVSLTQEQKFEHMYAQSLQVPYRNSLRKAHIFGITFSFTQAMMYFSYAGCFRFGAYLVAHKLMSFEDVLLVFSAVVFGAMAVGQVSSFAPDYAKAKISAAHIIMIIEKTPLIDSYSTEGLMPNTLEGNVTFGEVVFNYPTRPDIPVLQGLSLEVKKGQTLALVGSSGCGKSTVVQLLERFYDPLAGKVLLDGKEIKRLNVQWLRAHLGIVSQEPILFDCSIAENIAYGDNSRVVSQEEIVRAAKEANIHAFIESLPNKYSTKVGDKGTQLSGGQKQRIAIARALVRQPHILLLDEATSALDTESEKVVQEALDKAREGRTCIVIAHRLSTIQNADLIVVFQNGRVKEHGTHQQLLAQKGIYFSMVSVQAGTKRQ

[2] = target: T1, ATP-dependent translocase ABCB1; assay: Inhibition of ABCB1 in human SW620/AD300 cells assessed as potentiation of colchicine-induced cytotoxicity by measuring fold reduction in colchicine IC50 at 2 uM preincubated for 4 hrs followed by […] measured after 72 hrs by MTT assay relative to verapamil
[3] = target: T1, ATP-dependent translocase ABCB1; assay: Inhibition of ABCB1 in human SW620/AD300 cells assessed as increase in Rh123 accumulation at 2 uM preincubated or 4 hrs followed by Rh123 addition measured after 30 mins by flow cytometry; conditions: 0.5 h
[4] = target: T1, ATP-dependent translocase ABCB1; assay: Inhibition of ABCB1 in human SW620/AD300 cells assessed as potentiation of paclitaxel-induced cytotoxicity by measuring fold reduction in paclitaxel IC50 at 2 uM preincubated for 4 hrs followed by paclitaxel addition measured after 72 hrs by MTT assay relative to verapamil
[5] = target: T1, ATP-dependent translocase ABCB1; assay: Inhibition of ABCB1 in human SW620/AD300 cells assessed as reduction in paclitaxel efflux at 2 uM treated followed by 2 hrs of paclitaxel treatment in paclitaxel free medium for 30 mins by flow cytometry
[6] = target: T1, ATP-dependent translocase ABCB1; assay: Inhibition of ABCB1 in human SW620/AD300 cells assessed as reduction in Rh123 efflux at 2 uM treated followed by Rh123 addition in Rh123 free medium for 30 to 120 mins by flow cytometry
[7] = target: T1, ATP-dependent translocase ABCB1; assay: Inhibition of ABCB1 (unknown origin) expressed in HEK293T cells assessed as potentiation of paclitaxel-induced cytotoxicity by measuring fold reduction in paclitaxel IC50 at 2 uM preincubated for 4 hrs followed by paclitaxel addition measured after 72 hrs by MTT assay
[8] = target: T1, ATP-dependent translocase ABCB1; assay: Inhibition of ABCB1 (unknown origin) expressed in HEK293T cells assessed as potentiation of colchicine-induced cytotoxicity by measuring fold reduction in colchicine IC50 at 2 uM preincubated for 4 hrs followed by […] measured after 72 hrs by MTT assay
[9] = target: T1, ATP-dependent translocase ABCB1; assay: Binding affinity at ABCB1 in human SW620/AD300 cells assessed as thermal stabilization at 2 uM preincubated for 4 hrs followed by incubation 40 to 61 degC for 3 mins by CETSA; conditions: 0.05 h
[10] = target: T1, ATP-dependent translocase ABCB1; assay: Inhibition of ABCB1 in human SW620/AD300 cells assessed as potentiation of colchicine-induced cytotoxicity by measuring fold reduction in colchicine IC50 at 2 uM preincubated for 4 hrs followed by […] measured after 72 hrs by MTT assay

Row | Compound | fold change (FC) [1] | also measured
1 | C#CCSc1nc(Nc2ccccc2Cl)c(C#N)c(-c2ccccc2)n1 | 1.32 | 
2 | C#CCSc1nc(Nc2ccc(OC)cc2)c(C#N)c(-c2ccccc2)n1 | 1.92 | 
3 | COc1ccc(Nc2nc(SCc3cn(Cc4ccccc4Cl)nn3)nc(-c3ccccc3)c2C#N)cc1 | 6.7 | 
4 | C#CCSc1nc(Nc2cccc(C(F)(F)F)c2)c(C#N)c(-c2ccccc2)n1 | 1.2 | 
5 | N#Cc1c(Nc2cccc(C(F)(F)F)c2)nc(SCc2cn(Cc3ccccc3Cl)nn2)nc1-c1ccccc1 | 5.84 | 
6 | N#Cc1c(Nc2ccccc2Cl)nc(SCc2cn(Cc3ccccc3Cl)nn2)nc1-c1ccccc1 | 24.06 | 
7 | C#CCSc1nc(Nc2ccc(Cl)cc2)c(C#N)c(-c2ccccc2)n1 | 1.64 | 
8 | N#Cc1c(Nc2ccc(Cl)cc2)nc(SCc2cn(Cc3ccccc3Cl)nn2)nc1-c1ccccc1 | 2.02 | 
9 | C#CCSc1nc(Nc2cccc(Cl)c2)c(C#N)c(-c2ccccc2)n1 | 1.36 | 
10 | N#Cc1c(Nc2cccc(Cl)c2)nc(SCc2cn(Cc3ccccc3Cl)nn2)nc1-c1ccccc1 | 21.52 | 
11 | COc1ccccc1Nc1nc(SCc2cn(Cc3ccccc3Cl)nn2)nc(-c2ccccc2)c1C#N | 2.29 | 
12 | Cc1cccc(Nc2nc(SCc3cn(Cc4ccccc4Cl)nn3)nc(-c3ccccc3)c2C#N)c1 | 8.7 | 
13 | N#Cc1c(Nc2cccc([N+](=O)[O-])c2)nc(SCc2cn(Cc3ccccc3Cl)nn2)nc1-c1ccccc1 | 5.68 | 
14 | N#Cc1c(Nc2ccccc2F)nc(SCc2cn(Cc3ccccc3Cl)nn2)nc1-c1ccccc1 | 8.7 | 
15 | N#Cc1c(Nc2ccc(F)cc2)nc(SCc2cn(Cc3ccccc3Cl)nn2)nc1-c1ccccc1 | 1.01 | 
16 | Cc1ccccc1Nc1nc(SCc2cn(Cc3ccccc3Cl)nn2)nc(-c2ccccc2)c1C#N | 5.6 | 

Row | Compound | fold change (FC) [1] | also measured
17 | N#Cc1c(Nc2ccccc2)nc(SCc2cn(Cc3ccccc3Cl)nn2)nc1-c1ccccc1 | 7.86 | 
18 | Cc1ccccc1Nc1nc(SCc2cn(Cc3ccc(Cl)cc3)nn2)nc(-c2ccccc2)c1C#N | 136.33 | fold change (FC) [2]: 2; inhibition (INH) [3]: Active; fold change (FC) [4]: 7; inhibition (INH) [5]: Active; inhibition (INH) [6]: Active; fold change (FC) [7]: 4.53; fold change (FC) [8]: 31.31; Activity [9]: Active; fold change (FC) [10]: 5.04
19 | Cc1ccc(Cn2cc(CSc3nc(Nc4ccccc4C)c(C#N)c(-c4ccccc4)n3)nn2)cc1 | 4.44 | 
20 | Cc1ccc(Nc2nc(SCc3cn(Cc4ccc(Cl)cc4)nn3)nc(-c3ccccc3)c2C#N)cc1 | 8.7 | 
21 | Cc1ccc(Nc2nc(SCc3cn(Cc4ccc(F)cc4)nn3)nc(-c3ccccc3)c2C#N)cc1 | 1.03 | 
22 | N#Cc1c(Nc2ccccc2F)nc(SCc2cn(Cc3ccc(Cl)cc3)nn2)nc1-c1ccccc1 | 1.35 | 
23 | Cc1ccc(Cn2cc(CSc3nc(Nc4ccccc4F)c(C#N)c(-c4ccccc4)n3)nn2)cc1 | 1 | 
24 | Cc1ccc(Cn2cc(CSc3nc(Nc4ccc(C)cc4)c(C#N)c(-c4ccccc4)n3)nn2)cc1 | 4.35 | 
25 | Cc1ccc(Cn2cc(CSc3nc(Nc4ccccc4Cl)c(C#N)c(-c4ccccc4)n3)nn2)cc1 | 1.09 | 
26 | Cc1ccc(Nc2nc(SCc3cn(Cc4ccccc4Cl)nn3)nc(-c3ccccc3)c2C#N)cc1 | 3.58 | 
27 | Cc1ccc(Nc2nc(SCc3cn(Cc4ccccc4Cl)nn3)nc(-c3ccc(C(C)C)cc3)c2C#N)cc1 | 51.12 | 
28 | Cc1ccc(Nc2nc(SCc3cn(Cc4ccccc4Cl)nn3)nc(-c3ccc(C)cc3)c2C#N)cc1 | 17.04 | 
29 | COc1cc(-c2nc(SCc3cn(Cc4ccccc4Cl)nn3)nc(Nc3ccc(C)cc3)c2C#N)cc(OC)c1OC | 34.08 | 
30 | Cc1ccc(Nc2nc(SCc3cn(Cc4ccccc4Cl)nn3)nc(-c3ccc(Cl)cc3)c2C#N)cc1 | 5.31 | 
31 | Cc1ccc(Nc2nc(SCc3cn(Cc4ccccc4Cl)nn3)nc(-c3ccc(Br)cc3)c2C#N)cc1 | 3.61 | 
